The source of these data is paper PMC4210175 (Journal of Chemical Information and Modeling, 2014).

This experiment concerns the target T1, Mycobacterium thermoresistibile MycP1 (Mycolicibacterium thermoresistibile, UniProt G7CDQ2).
T1 sequence (G7CDQ2 19-443): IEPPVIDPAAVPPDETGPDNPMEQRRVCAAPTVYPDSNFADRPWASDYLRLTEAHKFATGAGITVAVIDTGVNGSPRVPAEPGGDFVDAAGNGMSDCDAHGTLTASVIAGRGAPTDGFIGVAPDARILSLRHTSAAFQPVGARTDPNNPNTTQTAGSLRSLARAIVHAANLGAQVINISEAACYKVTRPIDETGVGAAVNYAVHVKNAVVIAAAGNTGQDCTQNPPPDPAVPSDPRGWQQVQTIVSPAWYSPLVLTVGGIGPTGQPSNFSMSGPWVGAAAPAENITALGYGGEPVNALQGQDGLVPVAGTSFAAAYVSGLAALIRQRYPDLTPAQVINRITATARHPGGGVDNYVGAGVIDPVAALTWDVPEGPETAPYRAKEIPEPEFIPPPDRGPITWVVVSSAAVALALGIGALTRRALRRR
Put plainly: In vitro quenched fluorescent peptide assay of MycP1 inhibitors. The following applies: for inhibition at 150 µM: read-out: % inhibition at 150 μM. The experiment is classed as biochemical.

`N=C(N)c1ccc(/C=C/c2ccc(C(=N)N)cc2O)cc1` [compound 11, Hydroxystilbamidine]: it took 85.6 µM to reach half-maximal inhibition (IC50) and the inhibition (in general, the share of the control response that was lost under treatment) at 150 µM was 79.1%.
Consider `N=C(N)c1ccc(/N=N/Nc2ccc(C(=N)N)cc2)cc1` [compound 12, Diminazene], for which the inhibition at 150 µM amounted to 58%.
Same read-out and setting: then `CC(=O)Nc1ccc(/C=N/NC(N)=S)cc1` [compound 13, Thiacetazone], with 80.1%.
